Measured values reported in US20250000128A1, “SALTINESS ENHANCING COMPOSITION, AND COMPOSITION FOR ORAL USE AND METHOD OF ENHANCING SALTINESS THEREOF” (Nagase Viita Co., Ltd., priority 2021, published 2025).

Experiment: Sensory evaluation of saltiness enhancing effect in aqueous salt solution (Experiments 2 and 3); further: key: A test sample for which the majority of the expert panelists evaluated as having a stronger saltiness than the control sample was determined as having a saltiness enhancing effect (Good); a sample for which they did not so was determined as having no saltiness enhancing effect (Bad); *2: Undetermined whether saltiness was enhanced or not due to strong bitterness
Format: in vivo, human
Protocol: The preparation of 3″-α-GN prepared in Experiment 1, Sunphenon EGCg-OP (from Taiyo Kagaku Co., Ltd., epigallocatechin gallate (EGCg), 95.3% pure), naringin (from Sichuan Xinhua Health Biotechnology Co., Ltd., 98.2% pure) or Hayashibara Hesperidin S (from Hayashibara Co., Ltd., monoglucosyl hesperidin, 82.1% pure), and salt (from The Salt Industry Center of Japan, the purity of sodium chloride was 99% or higher) were dissolved in pure water to give concentrations as shown in Table 1 below for preparing aqueous solutions of a control sample and test samples 1-1 to 1-5. Then, 9 panelists competent in food sensory evaluation who had passed the five-taste test (hereinafter referred to as “expert panelists”) conducted sensory evaluation tests on the test samples. Specifically, each of the expert panelists held a room-temperature control sample and a room-temperature test sample in her/his mouth and evaluated whether the saltiness of the test sample was weaker, similar, or stronger than that of the control sample, and recorded the overall taste.
Control samples 2 and 3 and test samples 9 and 10 were prepared as in Experiment 2, except that the concentrations of 3″-α-GN and salt were changed as shown in Table 2 below. Sensory evaluation tests were then conducted as in Experiment 2 to evaluate the intensity of saltiness of the test samples including 3″-α-GN as compared with the control samples of the same salt concentrations.

[1] = 5 ppm in water, salt 0.5 mass % (test samples 3, 6, 7)

For `CC1O[C@@H](OC2C(O[C@H]3OC(CO)[C@@H](O)C(O)C3O)[C@H](O)C(CO)O[C@H]2Oc2cc(O)c3c(c2)OC(c2ccc(O)cc2)CC3=O)C(O)C(O)[C@H]1O` (stereo partly drawn) [3″-α-GN, 3″-α-monoglucosyl naringin], the Saltiness enhancing effect (0.1 ppm in water, salt 0.5 mass %, G/S 0.02×10^−3 (test sample 1 vs control sample 1)) was “Good”, the Saltiness enhancing effect (1 ppm in water, salt 0.5 mass %, G/S 0.2×10^−3 (test sample 2)) was “Good” and the Saltiness enhancing effect (1 ppm in water, salt 1 mass %, G/S 0.1×10^−3 (test sample 9 vs control sample 2)) was “Good”. The Saltiness enhancing effect (1 ppm in water, salt 2 mass %, G/S 0.05×10^−3 (test sample 10 vs control sample 3)) was “Good”, the Saltiness enhancing effect [1] was “Good” and the Saltiness enhancing effect (10 ppm in water, salt 0.5 mass %, G/S 2.0×10^−3 (test sample 4)) was “Good”. The Saltiness enhancing effect (40 ppm in water, salt 0.5 mass %, G/S 8.0×10^−3 (test sample 5)) was “*2”.
In the case of `C[C@@H]1O[C@@H](O[C@H]2[C@H](Oc3cc(O)c4c(c3)O[C@H](c3ccc(O)cc3)CC4=O)O[C@H](CO)[C@@H](O)[C@@H]2O)[C@H](O)[C@H](O)[C@H]1O` [Naringin, naringin, reference compound], the Saltiness enhancing effect [1] is reported as “Bad”.
With `O=C(O[C@@H]1Cc2c(O)cc(O)cc2O[C@@H]1c1cc(O)c(O)c(O)c1)c1cc(O)c(O)c(O)c1` [EGCg, epigallocatechin gallate, reference compound] the Saltiness enhancing effect [1] was “Bad”.
In the case of “monoglucosyl hesperidin [reference compound]”, the Saltiness enhancing effect (4 ppm in water, salt 0.5 mass % (test sample 8)) is reported as “Bad”.
